Values quoted from earlier work as cited in US7550162B2, “Labiatae herb extracts and hop extracts for extending the color life and inhibiting the growth of microorganisms in fresh meat, fish and poultry” (Kalsec Incorporated, priority 2001, dated 2009).
≈ marks a conversion by molar mass, not a printed value. Where two headings read alike, the source gives them in different places.

Columns and labels:
Gram-positive organisms = details: value also given in ppm
Gram positive organisms = details: in culture
Listeria = details: soy broth

| SMILES | Minimum inhibitory concentration (Gram-positive organisms) [µg/mL] | concentration inhibiting Listeria (Listeria) | further results |
| --- | --- | --- | --- |
| CC(C)=CCC1=C(O)C(C(=O)CC(C)C)=C(O)C(CC=C(C)C)(CC=C(C)C)C1=O [Lupulone (beta acids), Lupulone] | 1 (≈ 2.41 µM) | – | MIC (Gram positive organisms): 1-10 ppm |
| CC(C)CCC(=O)C1(O)C(O)=C(C(=O)CC(C)C)C(=O)C1CCC(C)C (centres unmarked) [Tetrahydroisohumulone, tetrahydroisohumulone] | – | 6-18 ppm | – |
| CC(C)CCC1=C(O)C(C(=O)C(C)C)=C(O)C(CCC(C)C)(CCC(C)C)C1=O [hexahydrocolulupone, hexahydrocolupulone] | – | 0.4 ppm | – |
| CC(C)=CCC1=C(O)C(C(=O)CC(C)C)=C(O)C1O (centres unmarked) [humulinic acid] | 250 (≈ 939 µM) | – | – |
| CC(C)=CCC(=O)C1(O)C(O)=C(C(=O)CC(C)C)C(=O)C1CC=C(C)C (centres unmarked) [isohumulone] | 25 (≈ 69 µM) | – | relative activity (beer spoilage organisms; pH 3.8): 226; relative activity (beer spoilage organisms; pH 4.6): 42 |
